Test results taken from patent US20030078274A1, “Method of reducing neuronal injury or apoptosis” (priority 1999, published 2003).

Test system: retinal ganglion cells (RGCs)
Test: Optic nerve axotomy model of glaucoma: RGC survival in vivo
Parameters: species or system Long-Evans rats
Source text: As a model for studying treatment of glaucoma, damaged (axotomized) retinal ganglion cells were employed. Specifically, transection of the optic nerve close to the cell body causes apoptotic death of retinal ganglion cells (RGCs), similar to that found in glaucoma. […] Three days later, the left optic nerve was intraorbitally transected 1 mm from the globe. One day after axotomy, no remarkable change in the fluorescence pattern of RGCs was seen compared to that of controls. RGC density, as assessed by the number of fluorescently-labeled cells, began to decline between 4 and 7 days post axotomy. By 14 days, a substantial number of fluorescently-labeled RGCs appeared to have been lost. Morphologically, in whole-mounted retinas stained with cresyl violet, ganglion cell layer (GCL) of unlesioned control retinas manifest no apoptotic profiles or pyknotic nuclei. In contrast, by 10 days after axotomy, multiple degenerating cell bodies with pyknotic nuclei were apparent in the GCL, and the cell density in this layer appeared to be greatly diminished. When hydroxystilbamidine fluorescence in the GCL was quantified, in unlesioned control retinas the mean RGC density was 2533±104 cells/mm^2 (mean±SD). Within 14 days of axotomy, the mean RGC density decreased to 348±107 (14% of control).
One day after axotomy, activated (di-phosphorylated) p38 was visualized by immunocytochemistry in the RGC layer, but not in control retinas. By Western blotting, phosphorylated p38 was first detected 12 hours after axotomy and reached a maximum at 24 hours before decreasing. SB 203580 was administered intravitreally at the time of axotomy, and repeated at 5 days and 10 days.
Retrograde labeling of retinal ganglion cells. Adult male Long-Evans rats weighing 200 to 250 g were obtained from a local breeder and, for all experimental manipulations, were anesthetized with 1-2% isoflurane and 70% N2O. RGCs were retrogradely labeled with hydroxystilbamidine (Molecular Probes, Eugene, Oreg., also known as Fluoro-Gold™) to allow accurate counting of cell bodies as described in Vorwerk et al., Invest. Ophthalmol. Vis. Sci. 40:813-816. Rats were anesthetized and placed in a small stereotactic instrument. The skull was exposed and kept dry. The bregma was identified and marked, and a small window was drilled above the right hemisphere, leaving the dura intact.
Axotomy. Optic nerve axotomy was performed on the left eye 4 days after retrograde labeling. After incision of the dorsolateral conjunctiva, the lateral extraocular muscle was transected, and the optic nerve was exposed under a stereoscopic microscope. The optic nerve was then transected at a distance of about 1 mm from the eye bulb. During the operation, care was taken to avoid damage to the retinal blood supply.
Drug application. Intravitreal injections were carried out using a 33-gauge needle attached to a 25 μl syringe following pupil dilation with 1% atropine sulfate. The tip of the needle was inserted through the dorsal limbus of the eye under stereomicroscopic visualization. Injections were completed over a period of 1 min. Intravitreal injections of SB 203580 (Calbiochem, San Diego, Calif.), MK801 (Research Biochemicals International, Natick, Mass.) or control solutions (as an equal volume of saline diluent) were performed on operated eyes immediately after axotomy, and repeated 5 and 10 days post axotomy.
Quantification of axotomized RGC survival and histology. […]

For `C[S+]([O-])c1ccc(-c2nc(-c3ccc(F)cc3)c(-c3ccncc3)[nH]2)cc1` (stereo not shown) [SB 203580, 4-(4-fluorophenyl)-2-(4-methylsulfinylphenyl)-5-(4-pyridyl)-1H-imidazole], the “neuroprotection of RGCs” value (0.2 nmol intravitreal (corresponding to 1.6 μM), 14 days post axotomy) was “significant degree of neuroprotection”, the “number of surviving RGCs” value (10 nmol intravitreal, 14 days post axotomy, axotomy alone 348, control 2,511) was 1,347 cells/mm^2 and the “number of surviving RGCs” value (14 days post axotomy, intravitreal at axotomy, 5 and 10 days, dose series) was “increased the number of surviving RGCs in a dose-dependent manner”. The “RGC protection on addition to MK801, compared with MK801 alone” value (SB 203580 added to MK801, intravitreal, axotomy) was “did not offer further protection”.
